The target in data set [1] is T1, cellular CAPRIN1 (Homo sapiens, UniProt Q14444).
T1 sequence (Q14444 1-709): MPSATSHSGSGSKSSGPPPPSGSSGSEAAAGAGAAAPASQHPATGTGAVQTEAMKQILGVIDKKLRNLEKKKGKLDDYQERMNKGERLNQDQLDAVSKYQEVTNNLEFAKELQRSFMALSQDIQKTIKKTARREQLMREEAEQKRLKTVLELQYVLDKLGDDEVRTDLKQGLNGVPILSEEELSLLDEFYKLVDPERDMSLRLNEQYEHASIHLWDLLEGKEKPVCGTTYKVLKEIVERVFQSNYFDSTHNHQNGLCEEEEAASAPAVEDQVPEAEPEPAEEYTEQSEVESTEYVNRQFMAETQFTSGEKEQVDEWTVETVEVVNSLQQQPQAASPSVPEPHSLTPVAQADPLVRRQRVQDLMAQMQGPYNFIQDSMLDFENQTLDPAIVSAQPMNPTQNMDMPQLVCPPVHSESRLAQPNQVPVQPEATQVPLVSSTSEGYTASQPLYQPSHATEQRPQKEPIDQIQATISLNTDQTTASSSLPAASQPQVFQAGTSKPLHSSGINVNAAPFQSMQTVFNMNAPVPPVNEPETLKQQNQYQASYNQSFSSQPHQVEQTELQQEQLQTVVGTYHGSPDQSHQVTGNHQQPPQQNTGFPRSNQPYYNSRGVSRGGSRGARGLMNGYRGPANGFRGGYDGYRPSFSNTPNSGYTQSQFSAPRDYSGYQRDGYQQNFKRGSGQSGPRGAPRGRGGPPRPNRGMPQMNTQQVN
As to the kind of experiment: HB007-biotin pull-down competition with cell lysates, immunoblot. Format: binding. The settings on record: free compound added to cell lysates.

The test system of data set [2] is SUMO1 mRNA. As to the kind of experiment: SUMO1 mRNA expression in LN229 cells. To be noted: LN229 cancer cells. Type of data set: cell-based, human.
The subject of data set [3] is SUMO1. As to the kind of experiment: SUMO1 target engagement in colon cancer PDX mice. Format: in vivo. To be noted: intraperitoneal once per day for 3 days, dose-dependent.
Data set [4] has as its system SUMO1-CDK6, SUMO1-RanGAP1, and SUMO3-RanGAP1 conjugation. As to the kind of experiment: In vitro sumoylation assay. Type of data set: biochemical. To be noted: CDK6 and RanGap1 as substrates.
In data set [5] the test system is LN229-derived brain xenografts. As to the kind of experiment: LN229-derived intracranial brain xenografts, survival. Type of data set: in vivo, mice. The settings on record: intraperitoneal, once per day for 14 days; Kaplan-Meier.
Data set [6] relates to SUMO1. As to the kind of experiment: Western and dot blots for SUMO1 in LN229 cells. Format: cell-based, human. The settings on record: 72 hours.
The test system of data set [7] is human colon, breast carcinoma, and NSCLC PDXs. As to the kind of experiment: Cancer PDX mouse models, tumor progression and survival. The settings on record: for progression of PDXs: intraperitoneal, once per day for 14 days. Type of data set: in vivo, mice.
Data set [8] has as its system NSCLC A549 and colon cancer HCT116 xenografts. As to the kind of experiment: Cancer cell line-derived subcutaneous xenografts. Format: in vivo, mice. The settings on record: intraperitoneal, once per day for 14 days.
In data set [9] the test system is matched normal lung, colon, breast and brain cells. As to the kind of experiment: Cell viability, matched normal cells. Type of data set: cell-based, human. The settings on record: compared to cancer cell lines.
The test system of data set [10] is SUMO1. As to the kind of experiment: Western blots for SUMO1 in normal lung epithelial cells. Format: cell-based, human. The settings on record: 72 hours; compared to lung cancer cells. (A western blot detects proteins with antibodies after separation by electrophoresis.)
For data set [11], the target named is histamine H2 (Homo sapiens, UniProt P25021). As to the kind of experiment: LeadProfilingScreen selectivity profiling. Type of data set: binding. The settings on record: 10 μM.
The nature of data set [12]: Oral and intravenous PK of suspension. Type of data set: in vivo, rodents. To be noted: administered as a suspension.
Data set [13] can be described thus: Oral PK of solution formulation. Format: in vivo. The settings on record: rat.
The test system of data set [14] is cancer cells. As to the kind of experiment: Caspase-3/7 activation and caspase-3 cleavage. Type of data set: cell-based, human. To be noted: caspase-3 cleavage.
The nature of data set [15]: Microsomal stability. To be noted: 1 μM, 45 min, LC-MS. Type of data set: in vitro ADME, human.
Data set [16] deals with human ether-a-go-go–related gene (Homo sapiens, UniProt Q12809). As to the kind of experiment: LeadProfilingScreen selectivity profiling. Format: binding. The settings on record: 10 μM.
Data set [17] deals with SUMO1. As to the kind of experiment: Western and dot blots for SUMO1 in HCT116 cells. Format: cell-based, human. To be noted: gradually over about 24 hours.
For data set [18], the target named is 5-hydroxytryptamine receptor 2B (5-HT2B) (Homo sapiens, UniProt P41595). As to the kind of experiment: LeadProfilingScreen selectivity profiling. Type of data set: binding. To be noted: 10 μM.
For data set [19], the system named is cytochrome P450s (2C9, 2D6, and 3A4). As to the kind of experiment: CYP inhibition in human liver microsomes. Format: in vitro ADME. To be noted: 10 μM. (Liver microsomes are vesicles of endoplasmic reticulum, rich in cytochrome P450 enzymes.)
The nature of data set [20]: Microsomal stability. Format: in vitro ADME, mouse. To be noted: 1 μM, 45 min, LC-MS.
Data set [21] concerns kinases, ion channels, NHRs, enzymes. As to the kind of experiment: LeadProfilingScreen selectivity profiling. Type of data set: binding, human. To be noted: 10 μM.
The target of data set [22] is adenosine A2A (Homo sapiens, UniProt P29274). As to the kind of experiment: LeadProfilingScreen selectivity profiling. Type of data set: binding. The settings on record: 10 μM.
A short description of data set [23]: Intraperitoneal PK, plasma and brain. Type of data set: in vivo, NOD/SCID mice. The settings on record: intraperitoneal injection 20 mg/kg, mice.

Chain of 5-hydroxytryptamine receptor 2B (5-HT2B) (P41595 whole entry): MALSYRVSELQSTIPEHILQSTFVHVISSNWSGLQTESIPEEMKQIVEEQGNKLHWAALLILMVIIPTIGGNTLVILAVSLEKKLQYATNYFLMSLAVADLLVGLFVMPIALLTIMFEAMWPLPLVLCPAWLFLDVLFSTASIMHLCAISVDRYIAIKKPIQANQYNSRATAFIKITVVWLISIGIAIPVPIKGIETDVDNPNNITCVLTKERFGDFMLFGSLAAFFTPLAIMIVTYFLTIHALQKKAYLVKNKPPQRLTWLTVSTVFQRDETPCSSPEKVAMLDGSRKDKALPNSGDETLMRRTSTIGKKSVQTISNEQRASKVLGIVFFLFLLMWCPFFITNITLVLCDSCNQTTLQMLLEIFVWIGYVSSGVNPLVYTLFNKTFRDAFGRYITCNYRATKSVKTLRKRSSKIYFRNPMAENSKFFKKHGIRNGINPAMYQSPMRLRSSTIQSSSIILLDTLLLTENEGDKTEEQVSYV
Chain of histamine H2 (P25021 whole entry): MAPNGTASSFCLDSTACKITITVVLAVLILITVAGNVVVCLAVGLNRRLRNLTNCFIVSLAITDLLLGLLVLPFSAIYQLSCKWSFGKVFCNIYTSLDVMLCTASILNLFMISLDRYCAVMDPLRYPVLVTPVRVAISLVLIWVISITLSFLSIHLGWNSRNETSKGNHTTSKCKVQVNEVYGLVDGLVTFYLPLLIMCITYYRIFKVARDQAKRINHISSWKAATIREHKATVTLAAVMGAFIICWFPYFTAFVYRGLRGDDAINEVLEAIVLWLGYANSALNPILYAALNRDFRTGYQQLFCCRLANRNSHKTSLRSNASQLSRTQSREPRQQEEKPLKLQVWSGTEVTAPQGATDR
Chain of adenosine A2A (P29274 whole entry): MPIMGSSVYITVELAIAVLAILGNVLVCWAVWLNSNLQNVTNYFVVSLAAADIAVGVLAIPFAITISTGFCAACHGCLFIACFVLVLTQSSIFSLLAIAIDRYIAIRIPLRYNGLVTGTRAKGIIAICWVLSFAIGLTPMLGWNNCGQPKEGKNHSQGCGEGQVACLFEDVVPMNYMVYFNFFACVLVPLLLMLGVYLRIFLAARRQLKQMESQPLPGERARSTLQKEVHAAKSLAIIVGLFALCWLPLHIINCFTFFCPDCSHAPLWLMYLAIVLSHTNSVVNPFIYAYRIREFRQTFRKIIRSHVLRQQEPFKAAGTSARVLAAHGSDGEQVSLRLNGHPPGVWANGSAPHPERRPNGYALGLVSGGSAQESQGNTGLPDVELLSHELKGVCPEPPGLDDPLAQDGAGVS
Chain of human ether-a-go-go–related gene (Q12809 whole entry): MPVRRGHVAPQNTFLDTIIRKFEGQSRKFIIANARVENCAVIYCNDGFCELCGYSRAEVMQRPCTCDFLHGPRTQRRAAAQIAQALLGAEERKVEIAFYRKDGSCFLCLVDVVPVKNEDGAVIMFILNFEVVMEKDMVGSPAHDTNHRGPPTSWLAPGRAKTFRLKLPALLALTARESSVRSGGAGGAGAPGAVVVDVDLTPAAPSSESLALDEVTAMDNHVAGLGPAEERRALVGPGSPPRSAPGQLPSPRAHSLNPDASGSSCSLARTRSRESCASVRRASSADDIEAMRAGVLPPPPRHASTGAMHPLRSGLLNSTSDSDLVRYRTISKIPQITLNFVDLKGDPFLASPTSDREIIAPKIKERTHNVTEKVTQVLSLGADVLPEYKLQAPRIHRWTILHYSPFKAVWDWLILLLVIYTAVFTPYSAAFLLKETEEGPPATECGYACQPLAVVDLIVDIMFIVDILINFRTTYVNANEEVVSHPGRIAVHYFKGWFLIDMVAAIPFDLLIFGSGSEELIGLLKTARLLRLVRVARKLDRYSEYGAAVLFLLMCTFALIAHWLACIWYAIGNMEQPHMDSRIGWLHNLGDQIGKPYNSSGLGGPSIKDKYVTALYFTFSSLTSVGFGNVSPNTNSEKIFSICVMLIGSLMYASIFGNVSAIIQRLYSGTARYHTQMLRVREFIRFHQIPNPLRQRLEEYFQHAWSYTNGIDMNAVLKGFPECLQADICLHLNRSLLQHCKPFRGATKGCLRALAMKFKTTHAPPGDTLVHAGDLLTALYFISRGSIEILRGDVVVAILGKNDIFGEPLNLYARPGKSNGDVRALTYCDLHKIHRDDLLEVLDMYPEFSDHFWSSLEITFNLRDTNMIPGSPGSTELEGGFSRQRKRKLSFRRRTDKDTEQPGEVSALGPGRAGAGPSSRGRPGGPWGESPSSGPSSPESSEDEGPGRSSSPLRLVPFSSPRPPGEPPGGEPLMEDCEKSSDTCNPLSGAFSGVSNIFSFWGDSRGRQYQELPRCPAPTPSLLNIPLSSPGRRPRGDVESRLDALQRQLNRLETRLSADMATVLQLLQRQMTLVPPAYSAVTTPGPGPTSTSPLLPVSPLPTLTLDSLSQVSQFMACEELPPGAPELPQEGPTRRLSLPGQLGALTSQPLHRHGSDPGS

On to `O=[N+]([O-])c1cccc2nc(Nc3ccc(Cl)cc3)sc12` [compound 11208948, reference compound], for which the “competitive inhibition of binding of cellular CAPRIN1 to HB007-linked biotin” value (shortened to “competitive inhibition”) in data set [1] is “failed to competitively inhibit”.

As to `O=C(Nc1ccc(Cl)c([N+](=O)[O-])c1)Nc1nc2ccccc2s1` [CPD1, 1-(1,3-benzothiazol-2-yl)-3-(4-chloro-3-nitrophenyl)urea], the “effect on SUMO1 mRNA expression” value in data set [2] is reported as “no effects”. Moreover, the “effect on SUMO1 protein in xenograft tissues” value in data set [3] is “markedly reduced both the total amounts and conjugate SUMO1 but not SUMO2/3 protein”. The “effect on in vitro SUMO conjugation” value in data set [4] is given as “no effects”. The “survival of brain xenograft-bearing mice” value in data set [5] is listed as “increased the survival”. For the same molecule, in data set [6], the “effect on SUMO1 and SUMO2/3 protein amounts” value is “reduced the conjugated and unconjugated forms and total amounts of SUMO1 but not SUMO2/3 protein”. In data set [7], the “progression of PDXs” value is “effectively suppressed the progression”. In addition, the xenograft growth entry in [8] is “suppressed xenograft growth”.

With `O=C(Nc1ccc(Cl)cc1)Nc1nc2ccccc2s1` [compound 789482, reference compound], the “competitive inhibition” value in data set [1] is on record as “failed to competitively inhibit”.

With `N#Cc1ccc2nc(NC(=O)Nc3cccc(Cl)c3)sc2c1` [HB007], the “effect on SUMO1 protein in xenograft tissues” value in data set [3] is “markedly reduced both the total amounts and conjugate SUMO1 but not SUMO2/3 protein”. The “growth inhibition of matched normal cells” value in [9] was “much lower growth inhibition effects”. Also, the “competitive inhibition” value in [1] was “competitively blocked”. For the same molecule, in [10], the “effect on conjugated and total SUMO1 in normal lung epithelial cells” value is given as “no effects”. Moreover, the “inhibition of histamine H2” value in [11] was “some inhibition”. For the same molecule, in data set [12], the “plasma concentrations after oral and intravenous administration” value is listed as “low plasma concentrations”. The “oral bioavailability in plasma” value in [13] is “up to 82%”. Further, the “induction of apoptotic cell death” value in [14] is given as “did not induce apoptotic cell death”. In addition, the “metabolic stability in human liver microsomes” value in data set [15] is “sufficiently stable”. Besides, the “activity against human ether-a-go-go–related gene” value in [16] is “no activity”. In [17], the “effect on SUMO1 and SUMO2/3 protein amounts” value was “reduced the conjugated and total amounts of SUMO1 but not SUMO2/3 protein”. Moreover, the “inhibition of 5-HT2B” value in data set [18] was “some inhibition”. The “inhibition of CYP enzymes” value in data set [19] is “did not inhibit”. The “metabolic stability in mouse liver microsomes” value in data set [20] is reported as “sufficiently stable”. Also, in data set [21], the “activity against kinases, ion channels, NHRs, enzymes” value is given as “no activity”. Moreover, the “survival of PDX mice” value in data set [7] (BRCA1 mutant breast carcinoma and primary or metastatic colon carcinoma PDX) was “increased the survival”. Further, the “progression of PDXs” value in [7] is given as “effectively suppressed the progression”. Further, the “inhibition of adenosine A2A” value in [22] is reported as “some inhibition”. The xenograft growth result in data set [8] is listed as “suppressed xenograft growth”. The molecule further came in with a brain-to-plasma partition coefficient in [23] of 0.57.

For the origin of these results see article PMC9450956 (Science translational medicine, 2021).
